Target: T1, Corticotropin-releasing factor receptor 1 (Homo sapiens, UniProt P34998)
T1 sequence (P34998 whole entry): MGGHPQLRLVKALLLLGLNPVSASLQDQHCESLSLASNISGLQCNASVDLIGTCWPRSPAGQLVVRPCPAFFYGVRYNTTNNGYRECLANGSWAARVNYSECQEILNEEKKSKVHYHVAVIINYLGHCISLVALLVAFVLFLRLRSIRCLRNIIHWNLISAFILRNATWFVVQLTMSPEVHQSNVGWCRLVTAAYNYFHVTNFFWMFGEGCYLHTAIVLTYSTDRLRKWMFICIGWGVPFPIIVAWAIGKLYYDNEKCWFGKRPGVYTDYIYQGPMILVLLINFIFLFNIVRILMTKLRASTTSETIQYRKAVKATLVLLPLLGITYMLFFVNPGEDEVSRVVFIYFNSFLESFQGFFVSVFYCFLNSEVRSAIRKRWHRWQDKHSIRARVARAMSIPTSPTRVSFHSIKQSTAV
Assay: Inhibition of [125I]CRH binding to human Corticotropin releasing factor receptor 1.

SMILES	Ki [µM]
CCCN(CC1CC1)c1cc(Nc2c(Cl)cc(Cl)cc2Cl)nc(C)n1	0.253
CCCN(CC1CC1)c1nc(C)nc(Nc2c(OC)cc(OC)cc2OC)n1	8

Reference: ChEMBL document CHEMBL1132254, “Pharmacophore development for corticotropin-releasing hormone: new insights into inhibitor activity” (J Med Chem, 1999)
